Data taken from the supplement of paper PMC10307832.

Tests used:
Test in all cases: relative viability (nuclei count vs DMSO), 5 days (fraction); higher = more cells survive
[1] = compound: CNC(=O)c1cc(Oc2ccc(NC(=O)Nc3ccc(Cl)c(C(F)(F)F)c3)cc2)ccn1 [Sorafenib] + CC(=O)c1c(C)c2cnc(Nc3ccc(N4CCNCC4)cn3)nc2n(C2CCCC2)c1=O [Palbociclib] (partner 0.5 µM)
Outline: (§1)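 Nuclei were stained with Hoechst during a one-step fixation (final 0.05% Triton X-100, 1% formaldehyde, 1 ug/ml Hoechst) carried out 5 days after dosing, then counted on 4× images. The cells, lung cancer lines in 1536-well plates, had been dosed by pin tool the day after seeding with one drug alone or a fixed anchor-drug dose plus five library-drug doses (not always all listed) in √10 steps. Relative viability is the nuclei count in treated wells divided by that in vehicle wells, and each value is the median of duplicate plates.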

[2] = compound: CNC(=O)c1cc(Oc2ccc(NC(=O)Nc3ccc(Cl)c(C(F)(F)F)c3)cc2)ccn1 [Sorafenib] + COc1cc2c(Oc3ccc(NC(=O)C4(C(=O)Nc5ccc(F)cc5)CC4)cc3F)ccnc2cc1OCCCN1CCOCC1 [Foretinib] (partner 0.25 µM)
Outline: as §1

[3] = compound: CNC(=O)c1cc(Oc2ccc(NC(=O)Nc3ccc(Cl)c(C(F)(F)F)c3)cc2)ccn1 [Sorafenib] + Nc1nc2[nH]cc(CCc3ccc(C(=O)N[C@@H](CCC(=O)O)C(=O)O)cc3)c2c(=O)[nH]1 [Pemetrexed] (partner 0.2 µM)
Outline: as §1

[4] = compound: CNC(=O)c1cc(Oc2ccc(NC(=O)Nc3ccc(Cl)c(C(F)(F)F)c3)cc2)ccn1 [Sorafenib] + CCNC(=O)c1noc(-c2cc(C(C)C)c(O)cc2O)c1-c1ccc(CN2CCOCC2)cc1 [Luminespib] (partner 0.01 µM)
Outline: as §1

[5] = compound: CNC(=O)c1cc(Oc2ccc(NC(=O)Nc3ccc(Cl)c(C(F)(F)F)c3)cc2)ccn1 [Sorafenib] + O=C(CCCCCCC(=O)Nc1ccccc1)NO [Vorinostat] (partner 1 µM)
Outline: as §1

Row | Cell Line | relative viability ([1]; first compound 0.08 µM) | relative viability ([1]; first compound 0.253 µM) | relative viability ([1]; first compound 2.53 µM) | relative viability ([1]; first compound 8 µM) | relative viability ([2]; first compound 0.08 µM) | relative viability ([2]; first compound 0.253 µM) | relative viability ([2]; first compound 2.53 µM) | relative viability ([2]; first compound 8 µM) | relative viability ([3]; first compound 0.08 µM) | relative viability ([3]; first compound 0.253 µM) | relative viability ([3]; first compound 8 µM) | relative viability ([4]; first compound 0.08 µM) | relative viability ([4]; first compound 0.253 µM) | relative viability ([4]; first compound 2.53 µM) | relative viability ([4]; first compound 8 µM) | relative viability ([5]; first compound 0.08 µM) | relative viability ([5]; first compound 0.253 µM) | relative viability ([5]; first compound 2.53 µM) | relative viability ([5]; first compound 8 µM) | relative viability ([3]; first compound 2.53 µM)
1 | NCI-H1734 | 0.376 | 0.329 | 0.37 | 0.275 | 1.05 | 0.769 | 0.682 | 0.41 | 0.431 | 0.415 | 0.374 | 0.235 | 0.131 | 0.186 | 0.161 | 0.936 | 0.708 | 0.752 | 0.631 | 
2 | CAL-12T | 0.512 | 0.396 | 0.489 | 0.247 | 1.39 | 1.05 | 1.03 | 0.868 | 1.22 | 1.1 | 1.13 | 0.14 | 0.363 | 0.347 | 0.147 | 0.723 | 0.722 | 0.72 | 0.494 | 1.01
3 | NCI-H647 | 0.373 | 0.316 | 0.284 | 0.082 | 1.25 | 1 | 0.987 | 0.48 | 0.171 | 0.141 | 0.0896 | 0.182 | 0.0896 | 0.148 | 0.15 | 0.473 | 0.453 | 0.257 | 0.0463 | 0.126
4 | NCI-H1793 | 0.354 | 0.376 | 0.465 | 0.411 | 0.76 | 0.853 | 1.12 | 0.798 | 1.24 |  | 0.529 | 0.23 | 0.207 | 0.199 | 0.187 | 0.783 | 0.739 | 1.05 | 0.578 | 1.11
5 | NCI-H23 | 0.522 | 0.503 | 0.514 | 0.389 | 1.03 | 0.977 | 0.833 | 0.871 | 0.764 | 0.609 | 0.421 | 0.225 |  | 0.228 | 0.213 | 0.635 | 0.384 | 0.678 | 0.547 | 0.716
6 | RERF-LC-KJ | 1.05 | 0.961 | 1.03 | 0.759 | 0.969 | 0.829 | 0.882 | 0.849 | 0.485 | 0.458 | 0.417 | 1.2 | 1.26 | 1.24 | 0.404 | 0.723 | 0.608 | 0.738 | 0.665 | 0.524
7 | NCI-H3122 | 0.204 | 0.2 | 0.177 | 0.18 | 0.985 | 0.993 | 1.01 | 0.618 | 0.209 | 0.194 | 0.167 | 0.11 | 0.105 | 0.0728 | 0.044 | 1.03 | 0.932 |  | 0.846 | 0.222
8 | NCI-H2009 | 0.275 | 0.115 | 0.21 | 0.198 | 1.27 | 1.18 | 1.09 | 0.916 | 1.02 | 0.909 | 0.959 | 1.03 | 0.868 | 0.915 | 0.476 | 0.703 | 0.666 | 0.699 | 0.719 | 0.83
9 | SK-LU-1 | 0.474 | 0.372 | 0.362 | 0.326 | 0.857 | 0.632 | 0.761 | 0.692 | 1.06 | 0.871 | 0.388 | 0.181 | 0.181 | 0.2 | 0.179 | 0.824 |  | 0.719 | 0.455 | 0.897
10 | EPLC-272H | 0.332 | 0.338 | 0.486 | 0.295 | 0.702 | 0.716 | 0.788 | 0.508 | 0.412 | 0.295 | 0.542 | 0.26 | 0.303 | 0.263 | 0.335 | 0.524 | 0.436 | 0.429 | 0.388 | 0.318
11 | NCI-H661 | 0.4 | 0.408 | 0.385 | 0.289 | 1.03 | 0.986 |  | 0.701 | 0.918 | 0.688 | 0.427 | 0.931 | 0.928 | 0.822 | 0.293 | 0.818 | 0.757 | 0.796 | 0.441 | 0.883
12 | NCI-H838 | 0.25 | 0.223 | 0.286 | 0.158 | 1.12 | 1.04 | 1.28 | 0.685 | 0.277 | 0.244 | 0.16 | 0.346 | 0.33 | 0.402 | 0.243 |  | 0.798 | 0.882 | 0.503 | 0.252
